Measurements reported in patent US11633459B2, “GIP derivatives and uses thereof” (priority 2018, dated 2023).
*1 amine or outer side, *2 acyl side, *3 side chain or, on linkers, in order; H or OH if unused. Where a SMILES comes first, the peptide text is derived from it. Where no end group is shown, it is not given here. Side-chain parts run from the residue outwards. [ ]: non-standard residue; d: D form. The star is where a group is joined. X1 = O=C(O)CCCCCCCCCCCCCCCCCCC(=O)NCC1CCC(C(=O)*)CC1; C18 diacid = O=C(O)CCCCCCCCCCCCCCCCC(=O)*; γGlu = O=C(O)[C@H](CCC(=O)[*:2])N[*:1]; Nle = CCCC[C@H](N)C(=O)O; AEEA = NCCOCCOCC(=O)O; Aib = CC(C)(N)C(=O)O

Assays:
human GLP-1 receptor = biological target: T1, human GLP-1 receptor (Homo sapiens, UniProt P43220); assay: In vitro potency, CRE luciferase reporter gene assay, whole BHK cells expressing human GLP-1 receptor; assay type: cell-based; conditions: 0.2% HSA
T1 construct: expressed in transfected cells; host or cells: BHK cells (parent line BHKTS13), clone BHK CRE luc2P hGLP-1R clone #6
Protocol: (§1) In Vitro Potency (CRE Luciferase; Whole Cells)
(§2) The in vitro potency is the measure of human GIP, GLP-1 or glucagon receptor activation, respectively, in a whole cell assay.
(§3) In vitro potency was determined by measuring the response of the human GIP, GLP-1 or glucagon receptor in a reporter gene assay in individual cell lines. […] When the respective receptor is activated it results in the production of cAMP, which in turn results in the luciferase protein being expressed. When assay incubation is completed the luciferase substrate (luciferin) is added and the enzyme converts luciferin to oxyluciferin to produce bioluminescence. The luminescence is measured as the readout for the assay.
(§4) The cells were derived from a clone containing the CRE luciferase element and were established by further transfection with the respective receptor to obtain the current clone.
(§5) The cells were cultured at 5% CO2 in Cell Culture Medium. They were aliquoted and stored in liquid nitrogen. The cells were kept in passage and were seeded out the day before each assay.
(§6) The Assay Buffer consisted of 1% ovalbumin and 0.1% Pluronic F-68 in Assay Medium with the addition of human serum albumin at twice the indicated concentrations.
(§7) 1) Cells were plated at 5000 cells/well and incubated overnight.
(§8) 2) Cells were washed three times in PBS.
(§9) 3) Assay Medium (50 μl aliquot) with or without serum albumin was added to each well in the assay plate.
(§10) 4) Stocks of the test compounds and reference compounds were diluted to a concentration of 0.2 μM in Assay Buffer. […] 8) The cells were washed three times with PBS plus some liquid in each well. 9) A 100 μl aliquot of steadylite plus reagent was added to each well of the assay plate (reagent was light sensitive). 10) Each assay plate was covered with aluminum foil to protect it from light and shaken for 30 min at room temperature. 11) Each assay plate was read in a microtiter plate reader. Calculations and Results
(§11) The data from the microtiter plate reader was transferred to GraphPad Prism software. […]
(§12) A minimum of two replicates was measured for each sample. […]

human glucagon receptor = biological target: T2, human glucagon receptor (Homo sapiens, UniProt P47871); assay: In vitro potency, CRE luciferase reporter gene assay, whole BHK cells expressing human glucagon receptor; assay type: cell-based; conditions: 0.2% HSA
T2 construct: expressed in transfected cells; host or cells: BHK cells (parent line BHKTS13), clone BHK CRE luc2P hGCGR clone #18
Protocol: as §1, §2, §3, §4, §5, §6, §7, §8, §9, §10, §11, §12

human GIP receptor = biological target: T3, human GIP receptor (Homo sapiens, UniProt P48546); assay: In vitro potency, CRE luciferase reporter gene assay, whole BHK cells expressing human GIP receptor; assay type: cell-based; conditions: 0.2% HSA
T3 construct: expressed in transfected cells; host or cells: BHK cells (parent line BHKTS13), clone BHK CRE luc2P hGIPR clone #5
T3 sequence (P48546 22-466): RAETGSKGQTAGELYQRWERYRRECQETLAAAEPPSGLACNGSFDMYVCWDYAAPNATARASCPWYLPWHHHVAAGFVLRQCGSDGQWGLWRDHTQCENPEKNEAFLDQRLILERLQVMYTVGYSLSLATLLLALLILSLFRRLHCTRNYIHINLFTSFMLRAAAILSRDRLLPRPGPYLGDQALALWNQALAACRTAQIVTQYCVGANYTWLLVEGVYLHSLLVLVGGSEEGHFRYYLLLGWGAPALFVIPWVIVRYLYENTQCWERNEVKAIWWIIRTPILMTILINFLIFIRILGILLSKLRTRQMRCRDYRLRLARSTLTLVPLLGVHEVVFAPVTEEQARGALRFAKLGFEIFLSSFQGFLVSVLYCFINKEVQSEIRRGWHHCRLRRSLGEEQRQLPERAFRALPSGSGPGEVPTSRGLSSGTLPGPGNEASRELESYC
Protocol: as §1, §2, §3, §4, §5, §6, §7, §8, §9, §10
The data from the microtiter plate reader was transferred to GraphPad Prism software. The software performs a non-linear regression (log(agonist) vs response).
A minimum of two replicates was measured for each sample. The reported values are averages of the replicates.

[1] = Pharmacokinetic study in minipigs, terminal half-life after i.v. administration; conditions: female, Göttingen, minipig, plasma, iv, 5 nmol/kg
Protocol: Pharmacokinetic Study in Minipigs
The purpose of this study is to determine the half-life in vivo of the derivatives of the present invention after i.v. administration to minipigs, i.e. the prolongation of their time in the body and thereby their time of action. This is done in a pharmacokinetic (PK) study, where the terminal half-life of the derivative in question is determined. By terminal half-life is generally meant the period of time it takes to halve a certain plasma concentration, measured after the initial distribution phase.
Female Göttingen minipigs were obtained from Ellegaard Göttingen Minipigs (Dalmose, Denmark) approximately 7-14 months of age and weighing from approximately 16-35 kg were used in the studies. The minipigs were housed individually and fed restrictedly once daily with SDS minipig diet (Special Diets Services, Essex, UK).
After at 3 weeks of acclimatisation two permanent central venous catheters were implanted in vena cava caudalis in each animal. The animals were allowed 1 week recovery after the surgery, and were then used for repeated pharmacokinetic studies with a suitable wash-out period between successive derivative dosing.
Blood samples (for example 0.8 ml) were collected in EDTA buffer (8 mM) and then centrifuged at 4° C. and 1942G for 10 minutes.
Individual plasma concentration-time profiles were analysed by a non-compartmental model in Phoenix WinNonLin ver. […] (Pharsight Inc., Mountain View, Calif., USA), and the resulting terminal half-lives (harmonic mean) determined.

T1 sequence (P43220 24-463): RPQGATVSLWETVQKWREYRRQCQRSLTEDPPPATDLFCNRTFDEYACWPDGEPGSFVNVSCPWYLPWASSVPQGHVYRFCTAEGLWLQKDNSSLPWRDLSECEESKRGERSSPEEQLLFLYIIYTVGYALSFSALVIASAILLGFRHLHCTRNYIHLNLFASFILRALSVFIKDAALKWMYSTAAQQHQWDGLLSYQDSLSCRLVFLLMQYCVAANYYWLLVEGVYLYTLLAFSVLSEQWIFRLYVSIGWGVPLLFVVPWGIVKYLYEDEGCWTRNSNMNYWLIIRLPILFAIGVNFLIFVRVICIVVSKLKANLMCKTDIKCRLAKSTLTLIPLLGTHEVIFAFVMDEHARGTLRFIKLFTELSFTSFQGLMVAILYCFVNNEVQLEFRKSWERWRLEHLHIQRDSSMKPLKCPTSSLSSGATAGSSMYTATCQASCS
T2 sequence (P47871 26-477): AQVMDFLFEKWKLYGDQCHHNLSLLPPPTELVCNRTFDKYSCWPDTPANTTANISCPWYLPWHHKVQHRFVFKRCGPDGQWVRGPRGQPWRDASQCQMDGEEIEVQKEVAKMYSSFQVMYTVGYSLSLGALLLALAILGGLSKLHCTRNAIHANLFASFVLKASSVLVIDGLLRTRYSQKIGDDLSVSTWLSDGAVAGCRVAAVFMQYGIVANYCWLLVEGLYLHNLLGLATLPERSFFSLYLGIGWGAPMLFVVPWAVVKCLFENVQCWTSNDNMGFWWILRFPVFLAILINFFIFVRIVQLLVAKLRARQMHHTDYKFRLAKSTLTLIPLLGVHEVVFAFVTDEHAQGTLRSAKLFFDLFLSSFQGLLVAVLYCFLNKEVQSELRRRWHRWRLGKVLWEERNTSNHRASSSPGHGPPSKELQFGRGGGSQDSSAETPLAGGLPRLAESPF

| EC50 (human GLP-1 receptor) [nM] | EC50 (human glucagon receptor) [nM] | EC50 (human GIP receptor) [nM] | half-life [1] [h] | Compound |
| --- | --- | --- | --- | --- |
| > 100 | > 100 | 0.0059 |  | H-Y[Aib]EGTFISDYSIA[Nle]DKIHQQDFVK([γGlu-γGlu-γGlu-C18 diacid])WLLAQKGKEDDWKHNITQ [Compound 39, N{Epsilon-24}-[(4S)-4-carboxy-4-[[(4S)-4-carboxy-4-[[(4S)-4-carboxy-4-(17-carboxyheptadecanoylamino)butanoyl]amino]butanoyl]amino]butanoyl]-[Aib2,Nle14,Lys24,Glu33,Asp34]-hGIP] |
|  |  | 0.0721 | 124 | CCCC[C@H](NC(=O)[C@H](C)NC(=O)[C@@H](NC(=O)[C@H](CO)NC(=O)[C@H](Cc1ccc(O)cc1)NC(=O)[C@H](CC(=O)O)NC(=O)[C@H](CO)NC(=O)[C@@H](NC(=O)[C@H](Cc1ccccc1)NC(=O)[C@@H](NC(=O)CNC(=O)[C@H](CCC(=O)O)NC(=O)C(C)(C)NC(=O)[C@@H](N)Cc1ccc(O)cc1)[C@@H](C)O)[C@@H](C)CC)[C@@H](C)CC)C(=O)N[C@@H](CC(=O)O)C(=O)N[C@@H](CCCCN)C(=O)N[C@H](C(=O)N[C@@H](CCCNC(=N)N)C(=O)N[C@@H](CCC(N)=O)C(=O)N[C@@H](CCC(N)=O)C(=O)N[C@@H](CC(=O)O)C(=O)N[C@@H](Cc1ccccc1)C(=O)N[C@H](C(=O)N[C@@H](CCCCNC(=O)CC[C@H](NC(=O)CC[C@H](NC(=O)CC[C@H](NC(=O)C1CCC(CNC(=O)CCCCCCCCCCCCCCCCCCC(=O)O)CC1)C(=O)O)C(=O)O)C(=O)O)C(=O)N[C@@H](Cc1c[nH]c2ccccc12)C(=O)N[C@@H](CC(C)C)C(=O)N[C@@H](CC(C)C)C(=O)N[C@@H](C)C(=O)N[C@@H](CCC(N)=O)C(=O)N[C@@H](CCCCN)C(=O)NCC(=O)O)C(C)C)[C@@H](C)CC (stereo partly drawn) [Compound 4, N{Epsilon-24}-[(4S)-4-carboxy-4-[[(4S)-4-carboxy-4-[[(4S)-4-carboxy-4-[[4-[(19-carboxynonadecanoylamino)methyl]cyclohexanecarbonyl]amino]butanoyl]amino]butanoyl]amino]butanoyl]-[Aib2,Nle14,Arg18,Lys24]-hGIP(1-31)] |
| > 100 | > 100 | 0.009 |  | H-Y[Aib]EGTFISDYSIA[Nle]DKIHQQDFVK([γGlu-γGlu-γGlu-C18 diacid])WLLAQKGKEEDWKHNITQ [Compound 38, N{Epsilon-24}-[(4S)-4-carboxy-4-[[(4S)-4-carboxy-4-[[(4S)-4-carboxy-4-(17-carboxyheptadecanoylamino)butanoyl]amino]butanoyl]amino]butanoyl]-[Aib2,Nle14,Lys24,Glu33,Glu34]-hGIP] |
| > 100 | > 100 | 0.00597 |  | Y[Aib]EGTFISDYSIA[Nle]DKIHQQDFVK([AEEA-AEEA-γGlu-C18 diacid])WLLAQKGKEDDWKHNITQ [Compound 36, N{Epsilon-24}-[2-[2-[2-[[2-[2-[2-[[(4S)-4-carboxy-4-(17-carboxyheptadecanoylamino)butanoyl]amino]ethoxy]ethoxy]acetyl]amino]ethoxy]ethoxy]acetyl]-[Aib2,Nle14,Lys24,Glu33,Asp34]-hGIP] |
|  |  | 0.0447 | 96 | CCCC[C@H](NC(=O)[C@H](C)NC(=O)[C@@H](NC(=O)[C@H](CO)NC(=O)[C@H](Cc1ccc(O)cc1)NC(=O)[C@H](CC(=O)O)NC(=O)[C@H](CO)NC(=O)[C@@H](NC(=O)[C@H](Cc1ccccc1)NC(=O)[C@@H](NC(=O)CNC(=O)[C@H](CCC(=O)O)NC(=O)C(C)(C)NC(=O)[C@@H](N)Cc1ccc(O)cc1)[C@@H](C)O)[C@@H](C)CC)[C@@H](C)CC)C(=O)N[C@@H](CC(=O)O)C(=O)N[C@@H](CCCCN)C(=O)N[C@H](C(=O)N[C@@H](CCCNC(=N)N)C(=O)N[C@@H](CCC(N)=O)C(=O)N[C@@H](CCC(N)=O)C(=O)N[C@@H](CC(=O)O)C(=O)N[C@@H](Cc1ccccc1)C(=O)N[C@H](C(=O)N[C@@H](CCCCNC(=O)COCCOCCNC(=O)COCCOCCNC(=O)CC[C@H](NC(=O)C1CCC(CNC(=O)CCCCCCCCCCCCCCCCCCC(=O)O)CC1)C(=O)O)C(=O)N[C@@H](Cc1c[nH]c2ccccc12)C(=O)N[C@@H](CC(C)C)C(=O)N[C@@H](CC(C)C)C(=O)N[C@@H](C)C(=O)N[C@@H](CCC(N)=O)C(=O)N[C@@H](CCCCN)C(=O)NCC(=O)O)C(C)C)[C@@H](C)CC (stereo partly drawn) [Compound 3, N{Epsilon-24}-[2-[2-[2-[[2-[2-[2-[[(4S)-4-carboxy-4-[[4-[(19-carboxynonadecanoylamino)methyl]cyclohexanecarbonyl]amino]butanoyl]amino]ethoxy]ethoxy]acetyl]amino]ethoxy]ethoxy]acetyl]-[Aib2,Nle14,Arg18,Lys24]-hGIP(1-31)] |
|  |  | 0.0712 | 132 | CCCC[C@H](NC(=O)[C@H](C)NC(=O)[C@@H](NC(=O)[C@H](CO)NC(=O)[C@H](Cc1ccc(O)cc1)NC(=O)[C@H](CC(=O)O)NC(=O)[C@H](CO)NC(=O)[C@@H](NC(=O)[C@H](Cc1ccccc1)NC(=O)[C@@H](NC(=O)CNC(=O)[C@H](CCC(=O)O)NC(=O)C(C)(C)NC(=O)[C@@H](N)Cc1ccc(O)cc1)[C@@H](C)O)[C@@H](C)CC)[C@@H](C)CC)C(=O)N[C@@H](CC(=O)O)C(=O)N[C@@H](CCCCN)C(=O)N[C@H](C(=O)N[C@@H](CCCNC(=N)N)C(=O)N[C@@H](CCC(N)=O)C(=O)NC(C)(C)C(=O)N[C@@H](CC(=O)O)C(=O)N[C@@H](Cc1ccccc1)C(=O)N[C@H](C(=O)N[C@@H](CCCCNC(=O)CC[C@H](NC(=O)CC[C@H](NC(=O)CC[C@H](NC(=O)C1CCC(CNC(=O)CCCCCCCCCCCCCCCCCCC(=O)O)CC1)C(=O)O)C(=O)O)C(=O)O)C(=O)N[C@@H](Cc1c[nH]c2ccccc12)C(=O)N[C@@H](CC(C)C)C(=O)N[C@@H](CC(C)C)C(=O)N[C@@H](C)C(=O)N[C@@H](CCC(N)=O)C(=O)N[C@@H](CCCCN)C(=O)NCC(=O)O)C(C)C)[C@@H](C)CC (stereo partly drawn) [Compound 12, N{Epsilon-24}-[(4S)-4-carboxy-4-[[(4S)-4-carboxy-4-[[(4S)-4-carboxy-4-[[4-[(19-carboxynonadecanoylamino)methyl]cyclohexanecarbonyl]amino]butanoyl]amino]-butanoyl]amino]butanoyl]-[Aib2,Nle14,Arg18,Aib20,Lys24]-hGIP(1-31)] (H-Y[Aib]EGTFISDYSIA[Nle]DKIRQ[Aib]DFVK([γGlu-γGlu-γGlu-X1])WLLAQKG-OH) |
